Data set [1] has as its system A/PR/8/34 strain influenza virus. The data set can be described thus: microbe, parasite or virus in culture. The following applies: for EC50: unidentified influenza virus, PR/8, MDCK, 72 h, read-out: ED50 (concentration at which the cytopathic effect derived from virus was reduced by 50% as compared with a control). Type of data set: cell-based, influenza virus A/PR/8/34. Background: Cytopathic effects are the visible damage that an infection or toxin causes in cultured cells.

The test system is the same in data set [2]. The experiment in a line: microbe, parasite or virus in culture. Type of data set: cell-based, influenza virus A/PR/8/34. Particulars: for inhibition at 10 µM: unidentified influenza virus, PR/8, MDCK, 72 h, read-out: Virus growth inhibition (%).
Data set [3] in a line: Cytotoxicity to uninfected MDCK cells (MTT method). The following applies: dog, mdck cells. Background: Formazan colour is commonly taken as a measure of viable cells.
Experimental: (§1) Further, in order to evaluate the cytotoxicities to the MDCK cells of the compounds of the present invention, these compounds at the same concentration were added to cells which were not infected with virus, and the survival rate after carrying out culture in the same manner was examined by the MTT method, which is also shown in Table 1.
Data set [4] deals with MDCK cells. The data set can be described thus: Cytotoxicity to uninfected MDCK cells (MTT method). Particulars: 10 μM; MDCK cells.
Experimental: as §1
In data set [5] the test system is B16 melanoma cells. The experiment in a line: Glycolipid biosynthesis-accelerating action in B16 melanoma cells (uptake of 14C-galactose into GSL fraction). Type of data set: cell-based. Particulars: for Uptake of 14C-galactose into GSL fraction: 24 hours, control 6,100; for Acceleration of biosynthesis of glycolipids including ganglioside (in words): Table 2. The procedure:
B16 melanoma cells derived from neuroectoderm were put into a culture plate with 12 wells in an amount of 2×10^5 cells/well and cultured for 24 hours in Dulbecco modified Eagle's media containing 10% bovine fetal serum. Thereafter, the media were exchanged with the same culture broths containing 2-acylaminopropanol compounds shown in Table 2, and ^14 C-galactose was added thereto. After 24 hours, the media were removed, the cells were washed with 1 ml of a phosphate buffer containing 0.02% EDTA, 1 ml of 0.25 % trypsin was added, and the mixtures were left to stand at 37° C. for 5 minutes. The cells were recovered by using the same culture broths and washed with a phosphate buffer, and then masses of the cells were obtained. 4 ml of methanol and chloroform were added successively to the masses of the cells to extract all GSL, followed by evaporation to dryness. Next, after this all GSL was suspended in 1 ml of water, the suspensions were dialyzed to water for 2 days to completely remove low molecules such as ^14 C-galactose, etc. The radioactivities of the GSL fractions thus obtained were measured by a liquid scintillation counter. A control is a result of carrying out an experiment in the same manner by exchanging the medium with the same amount of a culture broth not containing the compound of the present invention.

The conditions of data set [6]: J. Lipid Res., Vol. 32, 713-722 (1991); cited from earlier work.
The subject of data set [7] is virus. The following applies: Seikagaku vol. 65(8), p. 695 (1993); cited from earlier work.
Where [8] appears, read: 10 μM, MDCK cells, 3 days at 37° C., control 80.0.
Setting [9] is: Mus musculus, B16, 24 h, 10 μM, control 100, read-out: Glycolipid biosynthesis acceleration (%).

Read-outs that look alike come from different tables or passages of the source.

For orientation: inhibition means how much of the control response was suppressed. In general, viability refers to a per cent measure of how many cells are alive, often set against a control. The low end stands for a greater loss of cells, the high end for better survival. `CCCCCCCCCC(=O)NC(CN1CCCCC1CO)C(O)c1ccccc1` (mixture of isomers) [drawing 11 (Mixture of isomers), 2-decanoylamino-3-(2-(hydroxymethyl)-piperidino)-1-phenyl-1-propanol]: in data set [1] (setting [8]), the “Cytopathic effect (%)” value is listed as 3.1%. Moreover, the EC50 in data set [1] was found to be 1.5 µM. Moreover, in data set [2], the inhibition at 10 µM was 99.7%. The same molecule showed a viability at 72 h, 10 µM in data set [3] of 80 to 100%.
As to `CCCCCCCCCC(=O)N[C@@H](CN1CCCCC1)[C@H](O)c1ccccc1` (relative stereo) [drawing 8 (DL-erythro), 2-decanoylamino-1-phenyl-3-piperidino-1-propanol], in data set [1] (setting [8]), the “Cytopathic effect (%)” value is recorded as 7.8%. For the same molecule, in data set [2], the inhibition at 10 µM is 99.6%. Also, the viability at 72 h, 10 µM in data set [3] lay within 80 to 100%.
In the same order, the values of `CCCCCCCCCC(=O)N[C@H](CN1CCCCC1)[C@H](O)c1ccccc1` (relative stereo) [drawing 8 (DL-threo), 2-decanoylamino-1-phenyl-3-piperidino-1-propanol] are 40.0%, 93.9% and 80 to 100%.
Regarding `CCCCCCCCCC(=O)N[C@@H](CN1CCC(O)CC1)[C@H](O)c1ccccc1` (relative stereo) [drawing 9 (DL-erythro), 2-decanoylamino-3-(4-hydroxypiperidino)-1-phenyl-1-propanol], in data set [1], the “Cytopathic effect (%)” value stood at 0% and the EC50 was 5 µM. In data set [2], the “Suppression of growth of influenza virus (in words)” value is recorded as “completely suppressed growth of influenza virus” and the inhibition at 10 µM came to 100%. Besides, the viability at 72 h, 10 µM in data set [3] is 100%. For the same molecule, the “Cytotoxicity (in words)” value in data set [4] is “cytotoxicity at this concentration was not observed at all”.
In the case of `CCCCCCCCCC(=O)N[C@H](CN1CCC(O)CC1)[C@H](O)c1ccccc1` (relative stereo) [drawing 9 (DL-threo), 2-decanoylamino-3-(4-hydroxypiperidino)-1-phenyl-1-propanol], the “Cytopathic effect (%)” value in data set [1] (setting [8]) is listed as 14.2%. In data set [1], the EC50 amounted to 5.4 µM. Moreover, the inhibition at 10 µM in data set [2] was determined as 87.3%. In data set [3], this molecule returned a viability at 72 h, 10 µM of 100%.
On to `CCCCCCCCCC(=O)N[C@@H](CN(CC)CC)[C@H](O)c1ccccc1` (relative stereo) [drawing 10 (DL-erythro), 2-decanoylamino-3-diethylamino-1-phenyl-1-propanol], for which the “Cytopathic effect (%)” value in data set [1] (setting [8]) turned out to be 9.9%. Also, the EC50 in data set [1] was 1.5 µM. Moreover, the inhibition at 10 µM in data set [2] came to 88.5%. Further, the viability at 72 h, 10 µM in data set [3] came to 100%.
Take `CCCCCCCCCC(=O)N[C@@H](CN1CCN(C)CC1)[C@@H](O)c1ccccc1` [Compound 2]: in data set [5] (10 μM), the “Uptake of 14C-galactose into GSL fraction” value is listed as 10,300 cpm/mg protein. Further, the activity at 10 µM in data set [5] (setting [9]) amounted to 169%. Further, the “Acceleration of biosynthesis of glycolipids including ganglioside (in words)” value (“Acceleration” for short) in data set [5] was “significantly accelerate biosynthesis of glycolipids including ganglioside”.
`CCCCCCCCCC(=O)N[C@@H](CN1CCC(O)C1)[C@@H](O)c1ccccc1` (some centres unmarked) [Compound 3]: the “Uptake of 14C-galactose into GSL fraction” value in data set [5] (10 μM) was 9,380 cpm/mg protein. The activity at 10 µM in data set [5] (setting [9]) turned out to be 161%. Besides, in data set [5], the “Acceleration” value was “significantly accelerate biosynthesis of glycolipids including ganglioside”.
`CCCCCCCCCC(=O)N[C@@H](CNC1CCC(O)CC1)[C@@H](O)c1ccccc1` (some centres unmarked) [Compound 4]: the “Uptake of 14C-galactose into GSL fraction” value in data set [5] (5 μM) is on record as 9,740 cpm/mg protein. The activity at 5 µM in data set [5] (Mus musculus, B16, 24 h, 5 μM, control 100, read-out: Glycolipid biosynthesis acceleration (%)) stood at 160%. The “Acceleration” value in data set [5] was “significantly accelerate biosynthesis of glycolipids including ganglioside”.
On to `CCCCCCCCCC(=O)N[C@H](CN1CCOCC1)[C@H](O)c1ccccc1` [D-threo-PDMP, reference compound], for which the “Cytopathic effect (%)” value in data set [1] is 44.8%. In data set [2], the inhibition at 10 µM is 97.1%. The molecule also had a viability at 72 h, 10 µM in data set [3] of 60 to 80%.
Turning to `CCCCCCCCCC(=O)NC(CN1CCOCC1)C(O)c1ccccc1` (centres unmarked) [PDMP, 1-phenyl-2-decanoylamino-3-morpholino-1-propanol], the “Passing a blood-brain barrier (in words)” value in data set [6] was “can pass a blood-brain barrier”. Besides, the “Antiviral activity (in words)” value in data set [7] is “has an antiviral activity”.
On to `CCCCCCCCCC(=O)N[C@@H](CN1CCC(O)CC1)[C@H](O)c1ccccc1` [drawing 13 (D-erythro)], for which the “Uptake of 14C-galactose into GSL fraction” value in data set [5] (10 μM) was 11,470 cpm/mg protein. The activity at 10 µM in data set [5] (setting [9]) is 188%. The “Acceleration” value in data set [5] is recorded as “significantly accelerate biosynthesis of glycolipids including ganglioside”.
In the same order, the values of `CCCCCCCCCC(=O)N[C@@H](CN1CCC(O)CC1)[C@@H](O)c1ccccc1` [drawing 13 (L-threo)] are 9,670 cpm/mg protein, 159% and “significantly accelerate biosynthesis of glycolipids including ganglioside”.
